Experimental data from US20090081775A1, “Microscope system and screening method for drugs, physical therapies and biohazards” (Stiftesen Unversitetsforskning Bergen, priority 2005, published 2009).
Several values for one entry are separate records, joined by “and”; a condition that tells them apart may be missing. Equal values may be shown once.

Tested on: PC12 cells
Test: Segmentation of WGA stained PC12 cells treated with thymidine (cell size by automated 3D segmentation)
Assay type: cell-based, rat
Experimental: PC12 and NRK cells were cultured in DMEM supplemented with 10% fetal calf serum and 5% horse serum. For high-resolution fluorescence microscopy and light microscope analysis, PC 12 cells were plated in LabTek™ chambered swell cover glasses (Nalge Nunc Int., Wiesbaden, Germany). Two hours after plating, the cells were stained with two dyes. For the experiments in which the effect of thymidine on cellular size and morphology was investigated, PC12 cells were plated on LabTek™ chambered swell cover glasses. 24 hours after plating, fresh growth medium containing 4 mM thymidine (Sigma) was added to the cells. In the control condition, fresh growth medium without thymidine was used. 24 hours afterwards cells were washed once with prewarmed fresh growth medium and grown further in growth medium without thymidine. […] To specifically display cell borders, cells were stained with wheat germ agglutinin (WGA) conjugated to either AlexaFluor™488 or AlexaFluor™594 (Invitrogen). WGA-AlexaFluor™594 is a lectin which binds glycogenfugates like N-acetylglucosamine and therefore stains biological membranes efficiently. CellTracker™ (CellTracker™, Molecular Probes Inc., Eugene, Oreg., USA) passes freely through cell membranes, but once inside a cell, it is transformed into cell-impermeant reaction products and is retained in living cells through several generations. […]
High resolution, […] fluorescence microscopy was performed with an Olympus IX70 microscope (Olympus Optical Co. Europa GmbH, Hamburg) or a Zeiss Axiovert 200M (Bergman A S, Lilleström, Norway) both equipped with 100× oil-immersion objectives, monochromator-based illumination systems (T.I.L.L. Photonics GmbH, Martinsried, Germany), tripleband filtersets DAPI/FITC/TRITC F61-020 (AHF Analysetechnik AG, Tübingen, Germany) and piezo z-steppers (Physik Instrumente GmbH & Co., Karlsruhe, Germany). […] With both the wide-field and confocal imaging setups, WGA-stained cells were analyzed in 3D by acquiring single focal planes 300 to 400 nm apart from each other in the z-direction spanning the whole cellular volume. […]

[1] = 4 mM thymidine for 24 hours, then 24 hours without, mid plane 2D, mean and SEM, three experiments, listed as tymidine

Cc1cn([C@H]2C[C@H](O)[C@@H](CO)O2)c(=O)[nH]c1=O [thymidine]
Dmaj (+): mean major axis length, treated group [1]: 15.26 + 0.40 μm and 16.79 + 0.32 μm and 15.83 + 0.25 μm
Dmin (+): mean minor axis length, treated group [1]: 9.98 + 0.32 μm and 9.21 + 0.19 μm and 9.01 + 0.18 μm
mean size of a cell treated with thymidine compared to a control group (conclusion from three experiments): increase
